According to PMC4833387 (PLoS ONE, 2016):

Target: T1, Aurora B kinase (Homo sapiens, UniProt Q96GD4)
T1 construct: gene AURKB; 6×His-Aurora B/INCENP^(822–918); with INCENP^(822–918)
Experiment: in vitro […] kinase assay with recombinant complex (histone H3.[…] and MBP substrates); confirmed by IP kinase assay from HeLa lysates
Format: biochemical

T1 sequence (Q96GD4 whole entry): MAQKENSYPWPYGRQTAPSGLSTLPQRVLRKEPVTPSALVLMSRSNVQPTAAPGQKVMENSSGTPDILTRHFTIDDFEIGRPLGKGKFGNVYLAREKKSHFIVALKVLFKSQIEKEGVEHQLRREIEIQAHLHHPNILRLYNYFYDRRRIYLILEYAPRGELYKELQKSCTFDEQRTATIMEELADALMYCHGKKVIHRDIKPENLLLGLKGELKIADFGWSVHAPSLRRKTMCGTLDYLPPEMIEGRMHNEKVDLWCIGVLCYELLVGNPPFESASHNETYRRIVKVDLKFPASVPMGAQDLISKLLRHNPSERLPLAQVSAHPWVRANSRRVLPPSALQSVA
T1 sequence (Q9NQS7 822-918 partner): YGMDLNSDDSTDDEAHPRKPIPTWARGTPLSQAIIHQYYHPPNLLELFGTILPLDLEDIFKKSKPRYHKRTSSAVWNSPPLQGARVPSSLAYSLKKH

CC(=O)c1cnc2ccc(-c3cc(Cl)c(O)c(Cl)c3)nc2c1N[C@H]1CC[C@H](CN(C)C)CC1 [OTSSP167] gave an IC50 of about 25 nM.
